The values that follow come from patent US4853467A, “Nitrogen containing derivatives of epipodophyllotoxin glucosides” (Bristol-Myers Company, priority 1987, dated 1989).

≈ marks a conversion by molar mass, not a printed value.

Usually IC50 stands for the midpoint of a concentration-inhibition curve.

The test system of data set [1] is small cell lung cancer, non-lymphocytic leukemia, and non-seminomatous testicular cancer. Particulars: AMA Drug Evaluation, 5th Edition, 1983; cited from earlier work.
The next data set has as its system HCT/VM34. The data set can be described thus: In vitro cytotoxicity assay, HCT/VM34 teniposide-resistant human colon tumor. The format is cell-based. The settings on record: HCT/VM34, resistant to teniposide, two values per compound, four-fold serial dilution; for IC50: Homo sapiens. How it is done: (§1) The in vitro cytotoxicity assay involved growing various mammalian tumor cells, including human tumor cells, on microtitre plates employing established tissue culture methods. The concentration of each compound required to inhibit cell growth by 50% (IC50) was then determined by a four-fold serial dilution technique. The validity of the method has been supported by a report published in the "Proceedings of the American Association for Cancer Research", 1984, 25:1891 (Abst. No. 328). Tumor cells of the following types were employed for each compound tested: B16-F10 murine melanoma; Moser human colon; SW900 human lung and three human colon tumor cell lines namely HCT-116, HCT-VM, and HCT-VP, the latter two being resistant to teniposide (VM) and etoposide (VP), respectively. IC50 values less than 500 μg/ml are a positive indicator of antitumor activity. Table II presents IC50 values of various compounds of the present invention against the aforementioned cell lines.

The next data set has as its system HCT-116. The experiment in a line: In vitro cytotoxicity assay, HCT-116 human colon tumor. The format is cell-based. The settings on record: two values per compound, four-fold serial dilution; for In vitro cytotoxicity IC50, HCT-116: HCT-116 human colon; for IC50: Homo sapiens, HCT-116, HCT-116 human colon. How it is done:
as §1

In the next data set the test system is B16-F10 murine melanoma. The experiment in a line: In vitro cytotoxicity assay, B16-F10 murine melanoma. The format is cell-based. Particulars: two values per compound, four-fold serial dilution; for In vitro cytotoxicity IC50, B-16-F10: B16-F10 murine melanoma; for IC50: Mus musculus, B16-F10, B16-F10 murine melanoma, read-out: In vitro cytotoxicity IC50, B-16-F10. How it is done: as §1

In the next data set the test system is P388 murine leukemia. The experiment in a line: P388 Leukemia, antitumor activity against murine P388 leukemia. Format: in vivo, murine (female CDF1 mice). Particulars: i.p. on days 5 and 8; 10^6 P388 cells i.p.; maximum effect over doses; >=125 considered significant; etoposide values in parentheses are positive control in same experiment. The procedure:
Female CDF1 mice were implanted intraperitoneally with a tumor inoculum of 10^6 ascites cells of P388 murine leukemia and treated with various doses of a test compound; four mice were used for each dose level and ten were used as saline-treated control. The compounds were administered by intraperitoneal injection on days 5 and 8 (day 1 being the day of tumor implantation). Antitumor activity was expressed as % T/C which is the ratio of the median survival time (MST) of drug-treated group to the MST of saline-treated control group. A compound showing a % T/C value of 125 or greater is generally considered to have significant antitumor activity in the P388 test. The experiment lasted 31 days at the end of which time the number of survivors was noted. Table I presents the results of the above-described evaluation; only the maximum % T/C and the dose showing the maximum effect are reported.

Another data set deals with Moser human colon. The data set can be described thus: In vitro cytotoxicity assay, Moser human colon. Format: cell-based. The settings on record: two values per compound, four-fold serial dilution; for IC50: Homo sapiens. The procedure:
as §1

A further data set relates to SW900 human lung. The experiment in a line: In vitro cytotoxicity assay, SW900 human lung. The settings on record: two values per compound, four-fold serial dilution; for IC50: Homo sapiens, SW900, SW900 human lung; for In vitro cytotoxicity IC50, SW900: SW900 human lung. The format is cell-based. How it is done:
as §1

In the next data set the test system is HCT/VP35. The experiment in a line: In vitro cytotoxicity assay, HCT/VP35 etoposide-resistant human colon tumor. The format is cell-based. Particulars: two values per compound, four-fold serial dilution; for In vitro cytotoxicity IC50, HCT/VP35: HCT/VP35, resistant to etoposide; for IC50: Homo sapiens, HCT/VP35, HCT/VP35, resistant to etoposide. How it is done:
as §1

On to `COc1cc([C@@H]2c3cc4c(cc3[C@@H](O[C@@H]3O[C@@H]5CO[C@@H](C)O[C@H]5[C@H](O)[C@H]3O)[C@H]3COC(=O)[C@H]23)OCO4)cc(OC)c1O` [etoposide], for which the “activity in the treatment of cancers” value in data set [1] was “active in the treatment of a variety of cancers including small cell lung cancer, non-lymphocytic leukemia, and non-seminomatous testicular cancer”.
On to `COc1cc([C@@H]2c3cc4c(cc3[C@@H](O[C@@H]3O[C@@H]5CO[C@@H](C)O[C@H]5[C@H](O)[C@H]3O)[C@H]3COC(=O)[C@H]23)OCO4)cc(N=Cc2cccc([N+](=O)[O-])c2)c1O` [Example 22, 3'-Desmethoxy-3'-[[(3-nitro)phenyl]methylene]amino etoposide], for which, in the data set with HCT/VM34, the “In vitro cytotoxicity IC50, HCT/VM34” value worked out at 16.2 µg/mL. Further, the IC50 in the data set on HCT/VM34 is 21 µg/mL (≈ 29.7 µM); in the data set on HCT-116, 17 µg/mL (≈ 24.1 µM); in the data set with B16-F10 murine melanoma, 10.9 µg/mL (≈ 15.4 µM); in the data set with Moser human colon it was above 250 µg/mL; in the data set with SW900 human lung, above 250 µg/mL; in the data set on HCT/VP35, 36 µg/mL (≈ 50.9 µM). Also, in the data set on HCT-116, the “In vitro cytotoxicity IC50, HCT-116” value was found to be 13.3 µg/mL. Besides, the “In vitro cytotoxicity IC50, B-16-F10” value in the data set with B16-F10 murine melanoma was found to be 14.1 µg/mL. Also, the “Max % T/C (ratio of median survival time of drug-treated group to saline-treated control group)” value with P388 murine leukemia turned out to be 235%. In the data set with HCT/VP35, the “In vitro cytotoxicity IC50, HCT/VP35” value came out at 43 µg/mL.
In the case of `COc1cc([C@@H]2c3cc4c(cc3[C@@H](O[C@@H]3O[C@@H]5CO[C@@H](c6cccs6)O[C@H]5[C@H](O)[C@H]3O)[C@H]3COC(=O)[C@H]23)OCO4)cc(OC)c1O` [teniposide], the “activity in the treatment of cancers” value in data set [1] is “active in the treatment of a variety of cancers including small cell lung cancer, non-lymphocytic leukemia, and non-seminomatous testicular cancer”.
With `COc1cc([C@@H]2c3cc4c(cc3[C@@H](O[C@@H]3O[C@@H]5CO[C@@H](C)O[C@H]5[C@H](O)[C@H]3O)[C@H]3COC(=O)[C@H]23)OCO4)cc(NC(=O)NCc2ccccc2)c1O` [Example 11, 3'-Desmethoxy-3'-([[phenylmethyl)amino]carbonyl]amino etoposide], in the data set with HCT/VM34, the “In vitro cytotoxicity IC50, HCT/VM34” value amounted to 26 µg/mL and the IC50 was 24 µg/mL (≈ 34 µM). In the data set with HCT-116, the “In vitro cytotoxicity IC50, HCT-116” value came out at 98 µg/mL and the IC50 was found to be 58 µg/mL (≈ 82.1 µM). For the same compound, in the data set with B16-F10 murine melanoma, the “In vitro cytotoxicity IC50, B-16-F10” value was 40 µg/mL and the half-inhibitory concentration (IC50) is 44 µg/mL (≈ 62.3 µM). Besides, in the data set on P388 murine leukemia, the “Max % T/C (ratio of median survival time of drug-treated group to saline-treated control group)” value is 110%. Also, in the data set on Moser human colon, 89 µg/mL (≈ 126 µM) corresponded to half-maximal inhibition (IC50) and the “In vitro cytotoxicity IC50, MOSER” value amounted to 93 µg/mL. In the data set with SW900 human lung, the half-maximal inhibitory concentration (IC50) worked out at 74 µg/mL (≈ 105 µM) and the “In vitro cytotoxicity IC50, SW900” value was 84 µg/mL. Moreover, in the data set with HCT/VP35, the “In vitro cytotoxicity IC50, HCT/VP35” value came to 31 µg/mL and the IC50 came out at 30 µg/mL (≈ 42.5 µM).
Take `COc1cc([C@@H]2c3cc4c(cc3[C@@H](O[C@@H]3O[C@@H]5CO[C@@H](C)O[C@H]5[C@H](O)[C@H]3O)[C@H]3COC(=O)[C@H]23)OCO4)cc(N=Cc2ccsc2)c1O` [Example 17, 3'-Desmethyoxy-3'-[(3-thienyl)methylene]amino etoposide]: in the data set on HCT/VM34, the “In vitro cytotoxicity IC50, HCT/VM34” value came to 24 µg/mL and the IC50 was 23 µg/mL (≈ 34.4 µM). Also, in the data set on HCT-116, the “In vitro cytotoxicity IC50, HCT-116” value was 10.1 µg/mL and the IC50 was found to be 12.3 µg/mL (≈ 18.4 µM). Also, in the data set on B16-F10 murine melanoma, the “In vitro cytotoxicity IC50, B-16-F10” value is 8.4 µg/mL and the IC50 amounted to 6.7 µg/mL (≈ 10 µM). In addition, the “Max % T/C (ratio of median survival time of drug-treated group to saline-treated control group)” value with P388 murine leukemia turned out to be 195%. The same compound registered an IC50 in the data set on Moser human colon of 45 µg/mL (≈ 67.4 µM). Moreover, in the data set with SW900 human lung, the IC50 was 22 µg/mL (≈ 32.9 µM) and the “In vitro cytotoxicity IC50, SW900” value turned out to be 44 µg/mL. Besides, in the data set with HCT/VP35, the “In vitro cytotoxicity IC50, HCT/VP35” value worked out at 44 µg/mL and the IC50 is 31 µg/mL (≈ 46.4 µM).
In the case of `COc1cc([C@@H]2c3cc4c(cc3[C@@H](O[C@@H]3O[C@@H]5CO[C@@H](C)O[C@H]5[C@H](O)[C@H]3O)[C@H]3COC(=O)[C@H]23)OCO4)cc(NCN2C(=O)CCC2=O)c1O` [Example 13, 3'-Desmethoxy-3'-[(N-succinimido)methyl]amino etoposide], in the data set on HCT/VM34, the “In vitro cytotoxicity IC50, HCT/VM34” value was 3.9 µg/mL and it took 2.7 µg/mL (≈ 3.94 µM) to reach half-maximal inhibition (IC50). In addition, in the data set with HCT-116, the “In vitro cytotoxicity IC50, HCT-116” value came out at 4.1 µg/mL and the IC50 is 3.6 µg/mL (≈ 5.26 µM). For the same compound, in the data set with B16-F10 murine melanoma, the “In vitro cytotoxicity IC50, B-16-F10” value amounted to 8.7 µg/mL and the IC50 is 5.5 µg/mL (≈ 8.03 µM). The “Max % T/C (ratio of median survival time of drug-treated group to saline-treated control group)” value in the data set on P388 murine leukemia was 230%. Also, in the data set on Moser human colon, half-maximal inhibition (IC50) required 12.3 µg/mL (≈ 18 µM) and the “In vitro cytotoxicity IC50, MOSER” value came to 12.1 µg/mL. Besides, in the data set on SW900 human lung, the IC50 stood at 11 µg/mL (≈ 16.1 µM) and the “In vitro cytotoxicity IC50, SW900” value is 8.6 µg/mL. In the data set on HCT/VP35, the “In vitro cytotoxicity IC50, HCT/VP35” value was 3.3 µg/mL and half-maximal inhibition (IC50) required 3.4 µg/mL (≈ 4.97 µM).
